According to patent US7125858B2, “Hyaluronic acid in the treatment of cancer” (Bioniche Life Sciences Inc., priority 1999, dated 2006):

How the values were obtained:
[1] = test system: PC-3 human prostate cancer cells; assay: MTT cell proliferation, PC-3; assay type: cell-based; conditions: 48 h
Protocol: (§1) Cell proliferation was measured using dimethylthiazoldiphenyltetrazolium (MTT) reduction (Mosman et al. J. Immunol. Methods 65:55, 1983). Unless otherwise stated, 100 μl of 5 mg of MTT (Sigma-Aldrich, St. Louis, Mo., USA) dissolved in 1 ml of PBS was added into each well. After 4 h, medium was removed from each well, 1.0 ml of acid-isopropanol (0.04 N HCl in isopropanol) was added and reduced MTT was solubilized by mixing. Absorbency of the reaction product was measured at a wavelength of 570 nm using a multiplate spectrophotometer reader (Elx800 Model, Bio-TEK Instruments Inc., Winooski, Vt., USA).
(§2) Unless stated otherwise 1.0×10^5 cells/ml were seeded in 6-well flat-bottom tissue culture plates and were maintained for 48 h at 37° C. in a 5% CO2 atmosphere.
(§3) PC-3, LNCAP and Du-145 human prostate cancer cells; MCF-7 human breast cancer cells; HT-1080 human fibrosarcoma cancer cells; B16F1 murine melanoma cells; and, UMUC-3, RT-4, HT-1376 and T-24 human bladder cancer cells were incubated with 0.8, 8.0 and 80 μg/ml of 5.0–7.5×10^5 Da HA (Table 2).
(§4) PC-3. LNCaP and Du-145 human prostate cancer cells were incubated with 8.0 μg/ml of 5.0–7.5×10^5 Da HA or of <1.5×10^4 Da HA (Table 3).
(§5) Unless stated otherwise 2.0×10^4 cells/ml were seeded in 24-well plates and were maintained for 48 h at 37° C. in a 5% CO2 atmosphere. MTT was used at 50 μl per well.
(§6) T-24 human bladder cancer cells, PC-3 and Du-145 human prostate cancer cells, and MCF-7 human breast cancer cell were incubated with saline or with 80.0 μg/ml of 5.0–7.5×10^5 Da HA+1.0 μg/ml of M-DNA (Table 4).
(§7) CD44 expression and the inhibition of proliferation by 5.0–7.5×10^5 Da HA were measured using Jurkat T cell leukemia cells; MCF-7 human breast cancer cells; RT-4, T-24, HT-1376 and UMUC-3 human bladder cancer cells; and, PC-3, Du-145 and LNCaP prostate cancer cells (Table 8)

[2] = test system: Du-145 human prostate cancer cells; assay: MTT cell proliferation, Du-145; assay type: cell-based; conditions: 48 h
Protocol: as §1, §2, §3, §4, §5, §6, §7

[3] = test system: LNCaP human prostate cancer cells; assay: MTT cell proliferation, LNCaP; assay type: cell-based; conditions: 1.0×10^5 cells/ml, 48 h
Protocol: as §1, §2, §3, §4, §7

[4] = test system: MCF-7 human breast cancer cells; assay: MTT cell proliferation, MCF-7; assay type: cell-based
Protocol: as §1, §2, §3, §5, §6
MCF-7 human breast cancer cells (2.5×10^5 cells/ml) were incubated as in Example 6 with 0.0, 0.01 and 0.1 μg/ml of 5.0–7.5×10^5 Da HA+100 μg/ml of the synthetic 6 base oligonucleotide GG(GT)1GG (SEQ ID NO:1) or +100 μg/ml of the […] 27 base oligonucleotide (GT)13G (SEQ ID NO:2) (Table 6). MTT was used at 50 μl per well.
(§8) RT-4 human bladder cancer cells and MCF-7 human breast cancer cells were incubated as in Example 6 with 0.0, 0.008 or 0.08 μg/ml of 5.0–7.5×10^5 Da HA+0.1 μg/ml of CIS, +1.0 μg/ml of 5-FU or +10 μg/ml of 5-FU (Table 7).
as §7

colon-26 cancer cells = conditions: HA alone; colon-26 cells express high levels of HA receptors (Freemantle et al. 1995); cited from earlier work
[5] = test system: rectal, gastric, breast, prostate and endometrial cancers; conditions: HA >750 mg/kg administered with various other therapeutic agents over various periods of time (PCT/CA/00283); cited from earlier work
[6] = test system: B16F10 murine melanoma tumor; conditions: HA 1 mg/ml over 7 days by Alzet osmotic pump into the immediate vicinity of the tumor; cited from earlier work
IL-6 = IL-6 production by PBMCs (ELISA); assay type: cell-based, human
Protocol: (§9) Peripheral blood mononuclear cells (hereinafter, “PBMCs”) were isolated from the blood of 5 healthy humans by Ficoll-Hypaque (Amersham Pharmacia Biotech, Baie d'Urfée, Québec, Canada) density gradient centrifugation of whole blood. Stimulation of IL-6 and IL-12 production by the immune system cells was determined using the appropriate commercial ELISA (BioSource, Camarillo, Calif., USA). Results are expressed as the “fold” (x) increases in cytokine production by treated cells compared to control cells. PBMCs were incubated with 1 mg/ml of 5.0–7.5×10^5 Da and production of IL-6 and IL-12 was determined (Table 9). PBMCs, isolated from the blood of individual #1, were incubated with 0.008, 0.04, 0.2 and 1 mg/ml of 5.0–7.5×10^5 Da (Table 10)

[7] = test system: Jurkat T cell leukemia cells; assay: MTT cell proliferation, Jurkat T; assay type: cell-based; conditions: HA 80 μg/ml alone
Protocol: as §1, §7

[8] = test system: RT-4 human bladder cancer cells; assay: MTT cell proliferation, RT-4; assay type: cell-based
Protocol: as §1, §2, §3, §5
(§10) HT-1376, RT-4 and T-24 human bladder cancer cells were incubated with 0.8 μg/ml of 5.0–7.5×10^5 Da HA+1.0 μg/ml of MCC (Table 5).
as §8, §7

[9] = test system: T-24 human bladder cancer cells; assay: MTT cell proliferation, T-24; assay type: cell-based; conditions: 48 h
Protocol: as §1, §2, §3, §5, §6, §10, §7

[10] = test system: HT-1376 human bladder cancer cells; assay: MTT cell proliferation, HT-1376; assay type: cell-based; conditions: 48 h
Protocol: as §1, §2, §3, §5, §10, §7

[11] = test system: HT-1080 human fibrosarcoma cancer cells; assay: MTT cell proliferation, HT-1080; assay type: cell-based; conditions: 1.0×10^5 cells/ml, 48 h
Protocol: as §1, §2, §3

IL-12 = IL-12 production by PBMCs (ELISA); assay type: cell-based, human
Protocol: as §9

[12] = test system: B16F1 murine melanoma cells; assay: MTT cell proliferation, B16F1; assay type: cell-based; conditions: 1.0×10^5 cells/ml, 48 h
Protocol: as §1, §2, §3

[13] = test system: UMUC-3 human bladder cancer cells; assay: MTT cell proliferation, UMUC-3; assay type: cell-based; conditions: 1.0×10^5 cells/ml, 48 h
Protocol: as §1, §2, §3, §7

[14] = HA 8.0 μg/ml alone, 1.0×10^5 cells/ml
[15] = MCF-7 2.5×10^5 cells/ml, oligonucleotide 100 μg/ml alone (HA 0.0 μg/ml)
[16] = HA 80.0 μg/ml alone, 1.0×10^5 cells/ml
[17] = PBMCs of individual 1, HA 1 mg/ml
[18] = PBMCs of individual 2, HA 1 mg/ml
[19] = PBMCs of individual 3, HA 1 mg/ml
[20] = PBMCs of individual 4, HA 1 mg/ml
[21] = PBMCs of individual 5, HA 1 mg/ml
[22] = PBMCs of individual #1, HA 0.008 mg/ml
[23] = PBMCs of individual #1, HA 0.040 mg/ml
[24] = PBMCs of individual #1, HA 0.200 mg/ml
[25] = HA 0.8 μg/ml alone, 1.0×10^5 cells/ml
[26] = HA 8.0 μg/ml alone, 1.0×10^5 cells/ml, listed as 0.5–7.5 × 10^5 Da HA
[27] = HA 80.0 μg/ml alone (+ saline), 2.0×10^4 cells/ml, 24-well
[28] = HA at 0.8 μg/ml alone (+ saline), 2.0×10^4 cells/ml, 24-well

Substance: Hyaluronic acid [<1.5 × 10^4 Da HA]
- % inhibition of cell proliferation [1, 14]: 5%
- % inhibition of cell proliferation [2, 14]: 37%
- % inhibition of cell proliferation ([3]; HA 8.0 μg/ml alone): 24%

Substance: GG(GT)1GG
- % inhibition of cell proliferation [4, 15]: 20%

Substance: Hyaluronic acid [HA]
- % inhibition of cell proliferation [1, 16]: 30%
- growth of cancer cells (colon-26 cancer cells): significantly inhibits
- effect on cancers [5]: reduced or eliminated
- % inhibition of cell proliferation ([3]; HA 80.0 μg/ml alone): 26%
- reduction of tumor volume [6]: > 85%

Substance: Hyaluronic acid [5.0–7.5 × 10^5 Da HA]
- IL-6 production, fold increase vs control cells (IL-6; [17]): 3.8x
- IL-6 production, fold increase vs control cells (IL-6; [18]): 1.8x
- IL-6 production, fold increase vs control cells (IL-6; [19]): 4.1x
- IL-6 production, fold increase vs control cells (IL-6; [20]): 1.4x
- IL-6 production, fold increase vs control cells (IL-6; [21]): 6.3x
- IL-6 production, fold increase vs control cells (IL-6; [22]): 2.4x
- IL-6 production, fold increase vs control cells (IL-6; [23]): 3.5x
- IL-6 production, fold increase vs control cells (IL-6; [24]): 2.9x
- % inhibition of proliferation [7]: 0%
- % inhibition of cell proliferation [1, 25]: 15%
- % inhibition of cell proliferation [1, 26]: 26%
- % inhibition of cell proliferation [1, 27]: 30%
- % inhibition of cell proliferation ([8]; HA 0.008 μg/ml alone (+ saline), as in Example 6): 0%
- % inhibition of cell proliferation ([8]; HA 0.08 μg/ml alone (+ saline), as in Example 6): 0%
- % inhibition of cell proliferation ([8]; HA 0.8 μg/ml alone, 1.0×10^5 cells/ml, 48 h): 12%
- % inhibition of cell proliferation ([8]; HA 8.0 μg/ml alone, 1.0×10^5 cells/ml, 48 h): 13%
- % inhibition of cell proliferation ([8]; HA 80.0 μg/ml alone, 1.0×10^5 cells/ml, 48 h): 5%
- % inhibition of cell proliferation ([8]; HA at 0.8 μg/ml alone (+ saline), 2.0×10^4 cells/ml, 24-well, 48 h): 13%
- % inhibition of cell proliferation [9, 25]: 10%
- % inhibition of cell proliferation [9, 14]: 8%
- % inhibition of cell proliferation [9, 27]: 0%
- % inhibition of cell proliferation [9, 16]: 0%
- % inhibition of cell proliferation [9, 28]: 8%
- % inhibition of cell proliferation [10, 25]: 0%
- % inhibition of cell proliferation [10, 14]: 3%
- % inhibition of cell proliferation [10, 16]: 1%
- % inhibition of cell proliferation [10, 28]: 3%
- % inhibition of cell proliferation ([11]; HA 0.8 μg/ml alone): 4%
- % inhibition of cell proliferation ([11]; HA 8.0 μg/ml alone): 4%
- % inhibition of cell proliferation ([11]; HA 80.0 μg/ml alone): 36%
- IL-12 production, fold increase vs control cells (IL-12; [17]): 25.2x
- IL-12 production, fold increase vs control cells (IL-12; [18]): 7.1x
- IL-12 production, fold increase vs control cells (IL-12; [19]): 26.5x
- IL-12 production, fold increase vs control cells (IL-12; [20]): 10.0x
- IL-12 production, fold increase vs control cells (IL-12; [21]): 8.5x
- IL-12 production, fold increase vs control cells (IL-12; [22]): 4.9x
- IL-12 production, fold increase vs control cells (IL-12; [23]): 13.8x
- IL-12 production, fold increase vs control cells (IL-12; [24]): 8.5x
- % inhibition of cell proliferation ([12]; HA 0.8 μg/ml alone): 20%
- % inhibition of cell proliferation ([12]; HA 8.0 μg/ml alone): 20%
- % inhibition of cell proliferation ([12]; HA 80.0 μg/ml alone): 30%
- % inhibition of cell proliferation [2, 25]: 6%
- % inhibition of cell proliferation [2, 26]: 15%
- % inhibition of cell proliferation [2, 27]: 38%
- % inhibition of cell proliferation [2, 16]: 38%
- % inhibition of cell proliferation ([13]; HA 0.8 μg/ml alone): 10%
- % inhibition of cell proliferation ([13]; HA 8.0 μg/ml alone): 10%
- % inhibition of cell proliferation ([13]; HA 80.0 μg/ml alone): 2%
- % inhibition of cell proliferation ([3]; HA 0.8 μg/ml alone): 7%
- % inhibition of cell proliferation ([3]; HA 8.0 μg/ml alone, listed as 0.5–7.5 × 10^5 Da HA): 13%
- % inhibition of cell proliferation ([4]; MCF-7 2.5×10^5 cells/ml, HA 0.01 μg/ml alone, no oligonucleotide): 6%
- % inhibition of cell proliferation ([4]; MCF-7 2.5×10^5 cells/ml, HA 0.1 μg/ml alone, no oligonucleotide): 5%
- % inhibition of cell proliferation ([4]; MCF-7, HA 0.008 μg/ml alone (+ saline), as in Example 6): 12%
- % inhibition of cell proliferation ([4]; MCF-7, HA 0.08 μg/ml alone (+ saline), as in Example 6): 12%
- % inhibition of cell proliferation ([4]; MCF-7, HA 0.8 μg/ml alone, 1.0×10^5 cells/ml, 48 h): 19%
- % inhibition of cell proliferation ([4]; MCF-7, HA 8.0 μg/ml alone, 1.0×10^5 cells/ml, 48 h): 24%
- % inhibition of cell proliferation ([4]; MCF-7, HA 80.0 μg/ml alone (+ saline), 2.0×10^4 cells/ml, 24-well, 48 h): 35%
- % inhibition of cell proliferation ([4]; MCF-7, HA 80.0 μg/ml alone, 1.0×10^5 cells/ml, 48 h): 35%

Substance: (GT)13G (DNA GTGTGTGTGTGTGTGTGTGTGTGTGTG; listed as DNA, chemistry not given here) [(G1T)13G, synthetic 27 base oligonucleotide]
- % inhibition of cell proliferation [4, 15]: 44%
